Measurements from ChEMBL document CHEMBL3414566, “Synthesis, docking and ADMET studies of novel chalcone triazoles for anti-cancer and anti-diabetic activity” (Eur J Med Chem, 2015).

How the values were obtained:
[1] = Inhibition of rat intestinal alpha-glucosidase using nitrophenyl-alpha-D-glucopyranoside by spectrophotometrically
[2] = tested on: MCF7; assay: Anticancer activity against human MCF7 cells by MTT assay; assay type: functional, cell-based
[3] = tested on: DU-145; assay: Anticancer activity against human DU145 cells by MTT assay; assay type: functional, cell-based
[4] = Anticancer activity against human IMR32 cells by MTT assay; assay type: functional, cell-based, IMR-32
[5] = tested on: A549; assay: Anticancer activity against human A549 cells by MTT assay; assay type: functional, cell-based
[6] = tested on: HepG2; assay: Anticancer activity against human HepG2 cells by MTT assay; assay type: functional, cell-based
[7] = Homo sapiens, IMR-32, read-out: IC50
[8] = Homo sapiens, A549, read-out: IC50
[9] = Homo sapiens, MCF7, read-out: IC50
[10] = Homo sapiens, HepG2, read-out: IC50
[11] = Homo sapiens, DU-145, read-out: IC50

IC50 [1] | IC50 ([2]; mcf7) | IC50 ([3]; du-145) | IC50 [5, 8] [µM] | IC50 ([6]; hepg2) | IC50 [2, 9] [µM] | IC50 [6, 10] [µM] | IC50 ([1]; read-out: IC50) [µM] | IC50 ([5]; a549) | IC50 [3, 11] [µM] | Structure (SMILES) | IC50 [4, 7] [µM] | IC50 ([4]; imr-32)
Not Active | Not Active | Not Active | 75.5 | Not Active | – | – | – | – | – | CC1(C)CCc2cc(C(=O)/C=C/c3ccc(OCc4cn(-c5ccc(Cl)cc5)nn4)cc3)c(O)cc2O1 | 92.1 | –
Not Active | Not Active | Not Active | 80 | Not Active | – | – | – | – | – | CC1(C)CCc2cc(C(=O)/C=C/c3ccc(OCc4cn(-c5ccc(Br)cc5)nn4)cc3)c(O)cc2O1 | 69.4 | –
Not Active | – | Not Active | 65.9 | – | 176 | 109 | – | – | – | Cc1c(-n2cc(COc3ccc(/C=C/C(=O)c4cc5c(cc4O)OC(C)(C)CC5)cc3)nn2)cccc1[N+](=O)[O-] | – | Not Active
Not Active | Not Active | Not Active | 99.5 | Not Active | – | – | – | – | – | COc1ccc(-n2cc(COc3ccc(/C=C/C(=O)c4cc5c(cc4O)OC(C)(C)CC5)cc3)nn2)c([N+](=O)[O-])c1 | – | Not Active
Not Active | – | Not Active | 66.3 | Not Active | 182 | – | – | – | – | CC(=O)c1ccc(-n2cc(COc3ccc(/C=C/C(=O)c4cc5c(cc4O)OC(C)(C)CC5)cc3)nn2)cc1 | – | Not Active
Not Active | Not Active | Not Active | 137 | – | – | 115 | – | – | – | CCc1ccccc1-n1cc(COc2ccc(/C=C/C(=O)c3cc4c(cc3O)OC(C)(C)CC4)cc2)nn1 | – | Not Active
Not Active | Not Active | Not Active | 125 | – | – | 117 | – | – | – | Cc1ccc(-n2cc(COc3ccc(/C=C/C(=O)c4cc5c(cc4O)OC(C)(C)CC5)cc3)nn2)cc1Br | – | Not Active
– | Not Active | Not Active | – | – | – | 102 | 128 | Not Active | – | CC1(C)CCc2c(ccc(C(=O)/C=C/c3ccc(OCc4cn(-c5ccc(Cl)cc5)nn4)cc3)c2O)O1 | – | Not Active
Not Active | Not Active | Not Active | 129 | – | – | 136 | – | – | – | CC1(C)CCc2c(ccc(C(=O)/C=C/c3ccc(OCc4cn(-c5ccc(Br)cc5)nn4)cc3)c2O)O1 | 117 | –
Not Active | – | Not Active | – | – | 145 | 115 | – | Not Active | – | Cc1c(-n2cc(COc3ccc(/C=C/C(=O)c4ccc5c(c4O)CCC(C)(C)O5)cc3)nn2)cccc1[N+](=O)[O-] | 73.5 | –
Not Active | – | Not Active | – | – | 73.1 | 120 | – | Not Active | – | COc1ccc(-n2cc(COc3ccc(/C=C/C(=O)c4ccc5c(c4O)CCC(C)(C)O5)cc3)nn2)c([N+](=O)[O-])c1 | 132 | –
Not Active | – | Not Active | 149 | – | 171 | 91.4 | – | – | – | CC(=O)c1ccc(-n2cc(COc3ccc(/C=C/C(=O)c4ccc5c(c4O)CCC(C)(C)O5)cc3)nn2)cc1 | 89.5 | –
– | Not Active | Not Active | 112 | – | – | 67.8 | 67.8 | – | – | CCc1ccccc1-n1cc(COc2ccc(/C=C/C(=O)c3ccc4c(c3O)CCC(C)(C)O4)cc2)nn1 | – | Not Active
Not Active | Not Active | Not Active | – | – | – | 110 | – | Not Active | – | Cc1ccc(-n2cc(COc3ccc(/C=C/C(=O)c4ccc5c(c4O)CCC(C)(C)O5)cc3)nn2)cc1Br | – | Not Active
Not Active | Not Active | Not Active | 35.8 | – | – | 109 | – | – | – | CC1(C)CCc2cc(C(=O)/C=C/c3ccc(OCc4cn(Cc5ccc([N+](=O)[O-])cc5)nn4)cc3)c(O)cc2O1 | 108 | –
– | Not Active | Not Active | 91.3 | – | – | 95.8 | 74.9 | – | – | CCCCCn1cc(COc2ccc(/C=C/C(=O)c3cc4c(cc3O)OC(C)(C)CC4)cc2)nn1 | – | Not Active
Not Active | Not Active | Not Active | 50.8 | – | – | 127 | – | – | – | CCCCCCCCn1cc(COc2ccc(/C=C/C(=O)c3cc4c(cc3O)OC(C)(C)CC4)cc2)nn1 | 7.09 | –
Not Active | – | – | 69.9 | – | 17.1 | 69.9 | – | – | 29.9 | CC1(C)CCc2c(ccc(C(=O)/C=C/c3ccc(OCc4cn(Cc5ccc([N+](=O)[O-])cc5)nn4)cc3)c2O)O1 | 17.3 | –
– | – | Not Active | 48.6 | – | 191 | 9.82 | 102 | – | – | CCCCCn1cc(COc2ccc(/C=C/C(=O)c3ccc4c(c3O)CCC(C)(C)O4)cc2)nn1 | – | Not Active
Not Active | Not Active | Not Active | – | – | – | 74.1 | – | Not Active | – | CCCCCCCCn1cc(COc2ccc(/C=C/C(=O)c3ccc4c(c3O)CCC(C)(C)O4)cc2)nn1 | – | Not Active
– | Not Active | Not Active | – | Not Active | – | – | 23.9 | Not Active | – | C[C@H]1O[C@H](O[C@H]2[C@H](O)[C@@H](O)[C@@H](O[C@H]3[C@H](O)[C@@H](O)C(O)O[C@@H]3CO)O[C@@H]2CO)[C@H](O)[C@@H](O)[C@@H]1N[C@H]1C=C(CO)[C@@H](O)[C@H](O)[C@H]1O (stereo partly specified) [ACARBOSE] | – | Not Active
Not Active | – | – | 69.3 | – | – | 1.05 | – | – | 17.7 | COc1cccc2c1C(=O)c1c(O)c3c(c(O)c1C2=O)C[C@@](O)(C(=O)CO)C[C@@H]3O[C@H]1C[C@H](N)[C@H](O)[C@H](C)O1 [DOXORUBICIN] | 44.4 | –
